The values that follow come from patent US20250129021A1, “SMALL MOLECULE PROTEIN SYNTHESIS MODULATORS” (Interdict Bio, Inc., priority 2023, published 2025).

What all share (assay type): biochemical
One test concerns CCNE1. The test is described as follows: In vitro transcription-translation (IVTT) assay, CCNE1 reporter. Particulars: HeLa S3 lysate, sfGFP/mCherry ratio. As for the experimental part: In vitro transcription-translation assay setup: Each assay includes a master mix containing lysate and shared components, a 96-well plate containing compound titrations for testing, a 96-well DNA plate with reporter constructs to be tested, 96-well skirted PCR plates, and 96-well flat-bottom, black, fluorescent assay plates. Reaction materials setup: (A) Master mix—15 mL conical tube (3 mL of HeLa S3 Lysate described above; 0.6 mL of ThermoFisher Accessory Proteins (#88882); 1.2 ml of ThermoFisher Reaction Mix (#88882); 0.54 mL of nuclease-free Water); (B) 96-Well Master Mix+Compound Plate (Half-log dilutions (30 μM−0.1 μM) of 4 compounds of interest are prepared in 100% DMSO); 96-Well DNA Plate (Five DNA constructs are plated into single columns within the plate. Row 1 of the column contains nuclease free H2O, all other wells contain 110 ng/μL plasmid DNA). Reactions are started by mixing 155 μL of master mix and 3.5 μL of compound serial dilutions, then 9.1 μL of master mix+compound mixture is aliquoted across 5 96-well plates. Reactions begin with final addition of 2 μL of DNA for a 11.1 μL reaction volume in each well. The entire plate is sealed, and incubated for 2 hrs at 30° C. After 2 hrs, quench the assay using 45 μL of PBS, and transfer 50 μL to a flat-bottom black microplate Quantify the sfGFP and mCherry signals from each well on each plate, taking 3 reads of each plate, and perform data analysis below.
In vitro transcription-translation assay data analysis: Each plate is read three times in channels for both sfGFP and mCherry signals. The average signal across these 3 reads is then calculated for further analysis. Control wells containing no DNA reporter are subtracted from reporter wells in the same column to remove auto-fluorescence of the lysate. Then, the ratio of sfGFP/mCherry is calculated per well, and these ratios are averaged across the triplicate experiments on the same plate. Finally, the ratio of each titration concentration is normalized to the no drug control to create the normalized stalling metric. The error on this measurement is determined by propagating error through the averaging and normalization steps. Values are plotted and fit for IC50 determination for each test sequence and titration of compound.

Another test concerns MYC. The test is described as follows: In vitro transcription-translation (IVTT) assay, MYC reporter. As to conditions: IVTT assay, HeLa S3 lysate, MYC reporter, normalized sfGFP/mCherry ratio; half-log dilutions 30 μM-0.1 μM, 2 hrs at 30° C. Summed up:
(§1)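 Reporter: mCherry, P2A, then 3×FLAG-target peptide-sfGFP fusion, IRES-initiated; HeLa S3 lysate IVTT; cpd dilutions 30 μM−0.1 μM half-log in 100% DMSO (dilution-plate conc); DNA added last; 2 h, 30° C; PBS quench.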

For another test, the system named is MCL-1. The experiment in a line: In vitro transcription-translation (IVTT) assay, MCL-1 reporter. As to conditions: IVTT assay, HeLa S3 lysate, sfGFP/mCherry ratio; read-out: MCL1 IC50. In a few lines:
as §1

`O=C(NCC[C@@H]1CCCCNC1)O[C@@H]1[C@@H](O)CN[C@@H]1Cc1ccc(-c2cnco2)cc1` [V193013, (2R,3S,4S)-4-hydroxy-2-{[4-(1,3-oxazol-5-yl)phenyl]methyl}pyrrolidin-3-yl N-{2-[(3S)-azepan-3-yl]ethyl}carbamate]: the IC50 in the test with CCNE1, with MYC and with MCL-1 was less than 10 µM in each case.
As to `O=C(NCC[C@H]1CC2(CC2)CN1)O[C@@H]1[C@@H](O)CN[C@@H]1Cc1ccc(-c2cnco2)cc1` [V193018, (2R,3S,4S)-4-hydroxy-2-(4-(oxazol-5-yl)benzyl)pyrrolidin-3-yl (2-((R)-5-azaspiro[2.4]heptan-6-yl)ethyl)carbamate], the IC50 with CCNE1, in the test on MYC and with MCL-1 was less than 10 µM each time.
`O=C(NCCOC(F)F)O[C@@H]1[C@@H](O)CN[C@@H]1Cc1ccc(-c2cnco2)cc1` [V193066, (2R,3S,4S)-4-hydroxy-2-(4-(oxazol-5-yl)benzyl)pyrrolidin-3-yl (2-(difluoromethoxy)ethyl)carbamate]: the IC50 in the test on CCNE1, with MYC and in the test on MCL-1 was less than 10 µM throughout.
In the case of `O=C(NCc1cccc(OC(F)F)c1)O[C@@H]1[C@@H](O)CN[C@@H]1Cc1ccc(-c2cnco2)cc1` [V193068, (2R,3S,4S)-4-hydroxy-2-(4-(oxazol-5-yl)benzyl)pyrrolidin-3-yl (3-(difluoromethoxy)benzyl)carbamate], the IC50 with CCNE1, in the test with MYC and in the test with MCL-1 was less than 10 µM each time.
Regarding `O=C(NCCc1cccc(F)c1)O[C@@H]1[C@@H](O)CN[C@@H]1Cc1ccc(-c2cnco2)cc1` [V193069, (2R,3S,4S)-4-hydroxy-2-(4-(oxazol-5-yl)benzyl)pyrrolidin-3-yl (3-fluorophenethyl)carbamate], the IC50 with CCNE1, in the test on MYC and with MCL-1 was less than 10 µM in each case.
On to `O=C(NCc1cc(F)cc(F)c1)O[C@@H]1[C@@H](O)CN[C@@H]1Cc1ccc(-c2cnco2)cc1` [V193071, (2R,3S,4S)-4-hydroxy-2-(4-(oxazol-5-yl)benzyl)pyrrolidin-3-yl (3,5-difluorobenzyl)carbamate], for which the IC50 with CCNE1, with MYC and in the test on MCL-1 was less than 10 µM each time.
In the case of `O=C(NCc1cnn(C(F)F)c1)O[C@@H]1[C@@H](O)CN[C@@H]1Cc1ccc(-c2cnco2)cc1` [V193078, (2R,3S,4S)-4-hydroxy-2-(4-(oxazol-5-yl)benzyl)pyrrolidin-3-yl ((1-(difluoromethyl)-1H-pyrazol-4-yl)methyl)carbamate], the IC50 with CCNE1, in the test on MYC and in the test with MCL-1 was less than 10 µM throughout.
Turning to `O=C(NCc1cccc(F)c1)O[C@@H]1[C@@H](O)CN[C@@H]1Cc1ccc(-c2cnn(C(F)F)c2)cc1` [V193079, (2R,3S,4S)-2-(4-(1-(difluoromethyl)-1H-pyrazol-4-yl)benzyl)-4-hydroxypyrrolidin-3-yl (3-fluorobenzyl)carbamate], the IC50 with CCNE1, with MYC and with MCL-1 was less than 10 µM throughout.
Turning to `O=C(NCC[C@@H]1CCCN1)O[C@@H]1[C@@H](O)CN[C@@H]1Cc1ccc(-c2cnn(C(F)F)c2)cc1` [V193080, (2R,3S,4S)-2-(4-(1-(difluoromethyl)-1H-pyrazol-4-yl)benzyl)-4-hydroxypyrrolidin-3-yl (2-((S)-pyrrolidin-2-yl)ethyl)carbamate], the IC50 with CCNE1, in the test on MYC and in the test on MCL-1 was less than 10 µM each time.
For the compound `O=C(NCC[C@@H]1CCNC1)O[C@@H]1[C@@H](O)CN[C@@H]1Cc1ccc(-c2cnn(C(F)F)c2)cc1` [V193081, (2R,3S,4S)-2-(4-(1-(difluoromethyl)-1H-pyrazol-4-yl)benzyl)-4-hydroxypyrrolidin-3-yl (2-((S)-pyrrolidin-3-yl)ethyl)carbamate], the IC50 with CCNE1, in the test with MYC and in the test on MCL-1 was less than 10 µM throughout.
For `N#Cc1csc(-c2ccc(C[C@H]3NC[C@H](O)[C@H]3OC(=O)NCc3cccc(F)c3)cc2)c1` [V193129, (2R,3S,4S)-2-(4-(4-cyanothiophene-2-yl)benzyl)-4-hydroxypyrrolidin-3-yl (3-fluorobenzyl)carbamate], the IC50 with CCNE1, in the test on MYC and in the test with MCL-1 was less than 10 µM throughout.
In the case of `O=C(NCc1cccc2c1CNC2)O[C@@H]1[C@@H](O)CN[C@@H]1Cc1ccc(C(F)F)cc1` [V193139, (2R,3S,4S)-2-(4-(difluoromethyl)benzyl)-4-hydroxypyrrolidin-3-yl (isoindolin-4-ylmethyl)carbamate], the IC50 in the test on CCNE1, with MYC and with MCL-1 was less than 10 µM each time.
For the compound `O=C(NCc1cccc(F)c1)O[C@@H]1[C@@H](O)CN[C@@H]1Cc1ccc(-c2cc(C(F)F)cs2)cc1` [V193142, (2R,3S,4S)-2-(4-(4-(difluoromethyl)thiophen-2-yl)benzyl)-4-hydroxypyrrolidin-3-yl (3-fluorobenzyl)carbamate], the IC50 in the test with CCNE1 is 10 to 20 µM; in the test on MYC, less than 10 µM; in the test with MCL-1, less than 10 µM.
Take `O=C(NCc1ccc2c(c1)CNC2)O[C@@H]1[C@@H](O)CN[C@@H]1Cc1ccc(-c2cc(C(F)F)cs2)cc1` [V193165, (2R,3S,4S)-2-(4-(4-(difluoromethyl)thiophen-2-yl)benzyl)-4-hydroxypyrrolidin-3-yl (isoindolin-5-ylmethyl)carbamate]: the IC50 with CCNE1, with MYC and in the test on MCL-1 was less than 10 µM in each case.
As to `O=C(NCc1cccc(C2CNC2)c1)O[C@@H]1[C@@H](O)CN[C@@H]1Cc1ccc(-c2cc(C(F)F)cs2)cc1` [V193243, (2R,3S,4S)-2-(4-(4-(difluoromethyl)thiophen-2-yl)benzyl)-4-hydroxypyrrolidin-3-yl (3-(azetidin-3-yl)benzyl)carbamate], the IC50 in the test with CCNE1, in the test with MYC and with MCL-1 was less than 10 µM each time.
